Test [1] relates to Cabbage Looper (Trichoplusia ni). In words: Bioassay on Cabbage Looper (CL), 128-well diet tray assay. As to conditions: Cabbage Looper, Table ABC, read-out: CL rating. The format is in vivo. The method, boiled down:
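Mortality after five to seven days at 25° C (14:10 photoperiod), averaged over eight wells per compound. Diet in each well carried 50 μg/cm^2 of dried test molecule and received one to five second-instar larvae.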

Test [2] concerns Beet Armyworm (Spodoptera exigua). In words: Bioassay on Beet Armyworm (BAW), 128-well diet tray assay. The format is in vivo. As to conditions: Beet Armyworm, Table ABC, read-out: BAW rating. The method, boiled down:
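Percent mortality, averaged over eight wells, was scored after five to seven days at 25° C under 14:10 light-dark. Each well's diet carried 50 μg/cm^2 of test molecule applied in acetone-water (90:10) and dried before one to five second-instar larvae were added.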

With `CC#Cc1cc(C(/C=C(\F)c2ccc(C(=O)N[C@H](C)C(=O)NCC(F)(F)F)c(C(F)(F)F)c2)C(F)(F)F)cc(Cl)c1Cl` (stereo partly drawn) [F190, 4-((Z)-3-(3,4-Dichloro-5-(prop-1-yn-1-yl)phenyl)-1,4,4,4-tetrafluorobut-1-en-1-yl)-N—((R)-1-oxo-1-((2,2,2-trifluoroethyl)amino)propan-2-yl)-2-(trifluoromethyl)benzamide], the pest or weed control at 50 µg/cm2 in test [1] and in test [2] was 50 to 100% throughout.

On to `C[C@@H](NC(=O)c1ccc(/C(F)=C/C(c2cc(Cl)c(Cl)c(C#CC(C)(C)C)c2)C(F)(F)F)cc1C(F)(F)F)C(=O)NCC(F)(F)F` (stereo partly drawn) [F191, 4-((Z)-3-(3,4-Dichloro-5-(3,3-dimethylbut-1-yn-1-yl)phenyl)-1,4,4,4-tetrafluorobut-1-en-1-yl)-N—((R)-1-oxo-1-((2,2,2-trifluoroethyl)amino)propan-2-yl)-2-(trifluoromethyl)benzamide], for which the pest or weed control at 50 µg/cm2 in test [1] and in test [2] was 50 to 100% in each case.

Regarding `C[C@@H](NC(=O)c1ccc(/C(F)=C/C(c2cc(Cl)c(Cl)c(C#N)c2)C(F)(F)F)cc1C(F)(F)F)C(=O)NCC(F)(F)F` (stereo partly drawn) [F192, 4-((Z)-3-(3,4-Dichloro-5-cyanophenyl)-1,4,4,4-tetrafluorobut-1-en-1-yl)-N—((R)-1-oxo-1-((2,2,2-trifluoroethyl)amino)propan-2-yl)-2-(trifluoromethyl)benzamide], the pest or weed control at 50 µg/cm2 in test [1] and in test [2] was 50 to 100% each time.

In the case of `C[C@@H](NC(=O)c1ccc(/C(F)=C/C(c2cc(Cl)c(Cl)c(C(C)(F)F)c2)C(F)(F)F)cc1C(F)(F)F)C(=O)NCC(F)(F)F` (stereo partly drawn) [F193, 4-((Z)-3-(3,4-Dichloro-5-(1,1-difluoroethyl)phenyl)-1,4,4,4-tetrafluorobut-1-en-1-yl)-N—((R)-1-oxo-1-((2,2,2-trifluoroethyl)amino)propan-2-yl)-2-(trifluoromethyl)benzamide], the pest or weed control at 50 µg/cm2 in test [1] and in test [2] was 50 to 100% each time.

Turning to `C[C@@H](NC(=O)c1ccc(/C(F)=C/C(c2cc(Cl)c(Cl)c(CF)c2)C(F)(F)F)cc1C(F)(F)F)C(=O)NCC(F)(F)F` (stereo partly drawn) [F194], the pest or weed control at 50 µg/cm2 in test [1] and in test [2] was 50 to 100% in each case.

For the compound `C[C@@H](NC(=O)c1ccc(/C(F)=C/C(c2cc(Cl)c(Cl)c(C(F)F)c2)C(F)(F)F)cc1C(F)(F)F)C(=O)NCC(F)(F)F` (stereo partly drawn) [F195, 4-((Z)-3-(3,4-dichloro-5-(difluoromethyl)phenyl)-1,4,4,4-tetrafluorobut-1-en-1-yl)-N—((R)-1-oxo-1-((2,2,2-trifluoroethyl)amino)propan-2-yl)-2-(trifluoromethyl)benzamide], the pest or weed control at 50 µg/cm2 in test [1] and in test [2] was 50 to 100% in each case.

As for `C=Cc1cc(C(/C=C(\F)c2ccc(C(=O)N[C@@H]3CON(CC(F)(F)F)C3=O)c(C(F)(F)F)c2)C(F)(F)F)cc(Cl)c1Cl` (stereo partly drawn) [F196, 4-((Z)-3-(3,4-Dichloro-5-vinylphenyl)-1,4,4,4-tetrafluorobut-1-en-1-yl)-N—((R)-3-oxo-2-(2,2,2-trifluoroethyl)isoxazolidin-4-yl)-2-(trifluoromethyl)benzamide], the pest or weed control at 50 µg/cm2 in test [1] and in test [2] was 50 to 100% in each case.

On to `O=C(N[C@@H]1CON(CC(F)(F)F)C1=O)c1ccc(/C(F)=C/C(c2cc(Cl)c(Cl)c(Br)c2)C(F)(F)F)cc1C(F)(F)F` (stereo partly drawn) [F197, 4-((Z)-3-(3-Bromo-4,5-dichlorophenyl)-1,4,4,4-tetrafluorobut-1-en-1-yl)-N—((R)-3-oxo-2-(2,2,2-trifluoroethyl)isoxazolidin-4-yl)-2-(trifluoromethyl)benzamide], for which the pest or weed control at 50 µg/cm2 in test [1] and in test [2] was 50 to 100% in each case.

For `O=C(N[C@@H]1CON(CC(F)(F)F)C1=O)c1ccc(/C(F)=C/C(c2cc(Cl)c(Cl)c(Cl)c2)C(F)(F)F)cc1Br` (stereo partly drawn) [F198, 2-Bromo-N—((R)-3-oxo-2-(2,2,2-trifluoroethyl)isoxazolidin-4-yl)-4-((Z)-1,4,4,4-tetrafluoro-3-(3,4,5-trichlorophenyl)but-1-en-1-yl)benzamide], the pest or weed control at 50 µg/cm2 in test [1] and in test [2] was 50 to 100% in each case.

In the case of `O=C(N[C@@H]1CON(CC(F)(F)F)C1=O)c1ccc(/C(F)=C/C(c2cc(Cl)c(Cl)c(C(F)F)c2)C(F)(F)F)cc1C(F)(F)F` (stereo partly drawn) [F199, 4-((Z)-3-(3,4-Dichloro-5-(difluoromethyl)phenyl)-1,4,4,4-tetrafluoro-but-1-enyl)-N—((R)-3-oxo-2-(2,2,2-trifluoroethyl)isoxazolidin-4-yl)-2-(trifluoromethyl)benzamide], the pest or weed control at 50 µg/cm2 in test [1] and in test [2] was 50 to 100% each time.

`C=Cc1cc(/C(F)=C/C(c2cc(Cl)c(Cl)c(Cl)c2)C(F)(F)F)ccc1C(=O)NCC(=O)NCC(F)(F)F` (stereo not drawn) [F200, (Z)—N-(2-Oxo-2-((2,2,2-trifluoroethyl)amino)ethyl)-4-(1,4,4,4-tetrafluoro-3-(3,4,5-trichlorophenyl)but-1-en-1-yl)-2-vinylbenzamide]: the pest or weed control at 50 µg/cm2 in test [1] and in test [2] was 50 to 100% in each case.

As for `C=Cc1cc(/C(F)=C/C(c2cc(Cl)c(Cl)c(Cl)c2)C(F)(F)F)ccc1C(=O)N[C@H](C)C(=O)NCC(F)(F)F` (stereo partly drawn) [F201, N—((R)-1-Oxo-1-((2,2,2-trifluoroethyl)amino)propan-2-yl)-4-((Z)-1,4,4,4-tetrafluoro-3-(3,4,5-trichlorophenyl)but-1-en-1-yl]-2-vinylbenzamide], the pest or weed control at 50 µg/cm2 in test [1] and in test [2] was 50 to 100% throughout.

Regarding `C[C@@H](NC(=O)c1ccc(/C(F)=C/C(c2cc(F)c(Cl)c(C(F)(F)F)c2)C(F)(F)F)cc1C(F)(F)F)C(=O)NCC(F)(F)F` (stereo partly drawn) [F202, 4-((Z)-3-(4-Chloro-3-fluoro-5-(trifluoromethyl)phenyl)-1,4,4,4-tetrafluorobut-1-en-1-yl)-N—((R)-1-oxo-1-((2,2,2-trifluoroethyl)amino)propan-2-yl)-2-(trifluoromethyl)benzamide], the pest or weed control at 50 µg/cm2 in test [1] and in test [2] was 50 to 100% each time.

`O=C(CNC(=O)c1ccc(/C(F)=C/C(c2cc(F)c(Cl)c(C(F)(F)F)c2)C(F)(F)F)cc1C(F)(F)F)NCC(F)(F)F` (stereo not drawn) [F203, (Z)-4-(3-(4-Chloro-3-fluoro-5-(trifluoromethyl)phenyl)-1,4,4,4-tetrafluoro-but-1-en-1-yl)-N-(2-oxo-2-((2,2,2-trifluoroethyl)amino)ethyl)-2-(trifluoromethyl)benzamide]: the pest or weed control at 50 µg/cm2 in test [1] and in test [2] was 50 to 100% throughout.

Regarding `C=Cc1cc(/C(F)=C/C(c2cc(Cl)c(Cl)c(Cl)c2)C(F)(F)F)ccc1C(=O)N[C@@H]1CON(CC(F)(F)F)C1=O` (stereo partly drawn) [F204, N—((R)-3-Oxo-2-(2,2,2-trifluoroethyl)isoxazolidin-4-yl)-4-((Z)-1,4,4,4-tetrafluoro-3-(3,4,5-trichlorophenyl)but-1-en-1-yl)-2-vinylbenzamide], the pest or weed control at 50 µg/cm2 in test [1] and in test [2] was 50 to 100% throughout.

For `O=C(CNC(=O)c1ccc(/C(F)=C/C(c2ccc(C(F)(F)F)c(Cl)c2)C(F)(F)F)cc1C(F)(F)F)NCC(F)(F)F` (stereo not drawn) [F206, (Z)-4-(3-(3-Chloro-4-(trifluoromethyl)phenyl)-1,4,4,4-tetrafluorobut-1-en-1-yl)-N-(2-oxo-2-((2,2,2-trifluoroethyl)amino)ethyl)-2-(trifluoromethyl)benzamide], the pest or weed control at 50 µg/cm2 in test [1] and in test [2] was 50 to 100% throughout.

As to `C[C@@H](NC(=O)c1ccc(/C(F)=C/C(c2cc(Cl)cc(OCC(F)(F)F)c2)C(F)(F)F)cc1C(F)(F)F)C(=O)NCC(F)(F)F` (stereo partly drawn) [F207, 4-((Z)-3-(3-chloro-5-(2,2,2-trifluoroethoxy)phenyl)-1,4,4,4-tetrafluorobut-1-en-1-yl)-N—((R)-1-oxo-1-((2,2,2-trifluoroethyl)amino)propan-2-yl)-2-(trifluoromethyl)benzamide], the pest or weed control at 50 µg/cm2 in test [1] and in test [2] was 50 to 100% each time.

For `O=C(CNC(=O)c1ccc(/C(F)=C/C(c2ccc(C(F)(F)F)c(F)c2)C(F)(F)F)cc1C(F)(F)F)NCC(F)(F)F` (stereo not drawn) [F211], the pest or weed control at 50 µg/cm2 in test [1] and in test [2] was 50 to 100% in each case.

In the case of `C[C@@H](NC(=O)c1ccc(/C(F)=C/C(c2cc(Cl)cc(C#CC(C)(C)C)c2)C(F)(F)F)cc1C(F)(F)F)C(=O)NCC(F)(F)F` (stereo partly drawn) [F212, 4-((Z)-3-(3-Chloro-5-(3,3-dimethylbut-1-yn-1-yl)phenyl)-1,4,4,4-tetrafluorobut-1-en-1-yl)-N—((R)-1-oxo-1-((2,2,2-trifluoroethyl)amino)propan-2-yl)-2-(trifluoromethyl)benzamide], the pest or weed control at 50 µg/cm2 in test [1] and in test [2] was 50 to 100% each time.

Consider `C[C@@H](NC(=O)c1ccc(/C(F)=C/C(c2cc(Cl)cc(C(F)F)c2)C(F)(F)F)cc1C(F)(F)F)C(=O)NCC(F)(F)F` (stereo partly drawn) [F213, 4-((Z)-3-(3-Chloro-5-(difluoromethyl)phenyl)-1,4,4,4-tetrafluorobut-1-en-1-yl)-N—((R)-1-oxo-1-((2,2,2-trifluoroethyl)amino)propan-2-yl)-2-(trifluoromethyl)benzamide], for which the pest or weed control at 50 µg/cm2 in test [1] and in test [2] was 50 to 100% throughout.

For the compound `C[C@@H](NC(=O)c1ccc(/C(F)=C/C(c2cc(F)c(F)c(Br)c2)C(F)(F)F)cc1C(F)(F)F)C(=O)NCC(F)(F)F` (stereo partly drawn) [F214, 4-((Z)-3-(3-Bromo-4,5-difluorophenyl)-1,4,4,4-tetrafluorobut-1-en-1-yl)-N—((R)-1-oxo-1-((2,2,2-trifluoroethyl)amino)propan-2-yl)-2-(trifluoromethyl)benzamide], the pest or weed control at 50 µg/cm2 in test [1] and in test [2] was 50 to 100% in each case.
